Results as given in patent US12414968B2, “Compositions comprising bacterially derived minicells and methods of using the same” (EnGeneIC Molecular Delivery Pty Ltd, priority 2018, dated 2025).
Like-named read-outs stand apart in the source and are kept apart here.

How the values were obtained:
[1] = test system: bone marrow derived dendritic cells (BMDC) with CT26Ep12.1 cells; assay: BMDC / treated CT26Ep12.1 co-culture; format: cell-based, mouse
Protocol: (§1) The effect of tumor cell death in response to Ep-EDV, Ep-EDV-682, and 682 treatment on dendritic cell maturation was also examined (FIGS. 27E-27I). Bone marrow derived dendritic cells (BMDC) were co-incubated with treated tumor cells (4T1 and CT26Ep12.1) for 48 h, followed by assessment of the production of the type 1 interferons IFNα and IFNβ. Increases in type 1 interferon production by dendritic cells is well established as a mechanism of dendritic cell maturation and enhanced antigen presentation as well as being vital for their interaction with other immune cell subsets including NK cells and T-cells (Fitzgerald-Bocarsly and Feng, 2007; Simmons et al., 2012).
(§2) Bone Marrow Derived DCs (BMDC): Bone marrow was isolated from the femurs and tibias of Balb/c mice. […]
(§3) Macrophage and DC/Tumor Cell Co-cultures: CT26Ep12.1 and 4T1 cells were harvested with Versene (Gibco) and cells were collected in 1 mL Eppendorf tubes. […] RAW264.7/tumor cell co-cultures were collected using a cell scraper and samples were stained with DAPI (Sigma), anti-CD45 Brilliant Violet 510 (BioLegend), anti-CD86 APC-Cy7, and anti-CD206 AF488 and assessed by flow cytometry. […] RNA concentration was determined on an Eppendorf biophotometer plus. […] Data was exported to excel and the relative quantitation was calculated from the ΔΔCt.

[2] = test system: human lung cancer cell line A549; assay: MTS cell proliferation assay, A549; format: cell-based; settings: 72 hrs
[3] = test system: patient derived pancreatic ductal adenocarcinoma cells (head and tail); assay: Drug sensitivity of patient derived PDAC cells; format: cell-based, human
Protocol: PDAC cells obtained from resected tumor tissue from both the head and tail of the pancreas were examined for drug sensitivity.
The dosed was administered over 20 min via a 20 ml niki pump and premedications were given prior to dosing as before (van Zandwijk et al., 2017). Serum biochemistry, haematology and cytokine expression was evaluated pre and 3 hours post each dose. CA19-9 and C-reactive protein levels were monitored at least bi-weekly. Peripheral Blood mononuclear cells (PBMCs) were examined by flow cytometry prior to dosing and at the end of the cycle for changes in anti-tumour immune cell numbers. Tumour tissue was obtained from the original surgical resection and PDAC cells were cultured and tested for drug sensitivity and surface receptors expression.

MiaPaca-2 GemR cells = assay: MTS cell proliferation assay, MiaPaca-2 GemR; format: cell-based, human; settings: 72 hrs
[4] = test system: human breast cancer cell line MDA-MB-468; assay: MTS cell proliferation assay, MDA-MB-468; format: cell-based; settings: 72 hrs
RAW264.7 cells = RAW264.7 cells incubated directly with EDVs; format: cell-based, mouse; settings: direct incubation
Source text: Results: M1 macrophage polarization and dendritic cell maturation in response to EDV Treatment: Due to the fact that the EDV is derived from Salmonella Typhimurium bacteria, the outer EDV membrane contains a substantial lipopolysaccharide (LPS) content (MacDiarmid et al., 2007b). The interaction of high doses of LPS with macrophages is well known to result in macrophage activation and M1 polarization. To determine if the EDV was capable of eliciting a similar phenotypic response, RAW264.7 cells were incubated with Ep-EDV-682 and Ep-EDV and examined for changes in macrophage phenotype and cytokine production. Expression of the co-stimulatory CD86 expression is known to be a phenotypic indicator of macrophage polarization as well as a hallmark of the antitumor M1 tumor associated macrophages (TAMs) (Dong et al., 2016).
Treatment of RAW264.7 cells with EDVs: RAW264.7 cells were seeded in 6-well plates at 3×10^5 cells per well and incubated overnight. […] Cells were harvested 6h and 24h post treatment using a cell scraper and samples were stained with DAPI (Sigma), anti-CD45 Brilliant Violet 510 (BioLegend), anti-CD86 APC-Cy7 (BioLegend), and anti-CD206 AF488 (R&D Systems) and assessed by flow cytometry.

[5] = test system: bone marrow derived dendritic cells (BMDC) with 4T1 cells; assay: BMDC / treated 4T1 co-culture; format: cell-based, mouse
Protocol: as §1, §2, §3

[6] = test system: Glioblastoma cell line U87-MG; assay: MTS cell proliferation assay, U87-MG; format: cell-based; settings: 72 hrs
[7] = test system: RAW264.7 cells co-cultured with treated 4T1 and CT26Ep12.1 cells; assay: RAW264.7 / treated tumor cell co-culture; format: cell-based, mouse; settings: then co-culture
Protocol: Macrophage and DC/Tumor Cell Co-cultures: CT26Ep12.1 and 4T1 cells were harvested with Versene (Gibco) and cells were collected in 1 mL Eppendorf tubes. Cells were resuspended in 1 mL DMEM (Sigma) supplemented with 10% FBS (Bovogen) containing: Ep-EDV (1000:1 and 5000:1—EDV:cells); Ep-EDV-682 (500:1 and 1000:1—EDV:cells); Ep-EDV-Dox (10,000:1—EDV:cell), 100 pmol PNU-159682, 5 μM Doxorubicin, or media alone. […] Cells were then washed thoroughly with PBS to remove any non-adherent EDV or excess drug. Treated tumor cells were cultured overnight with either RAW264.7 or BMDC at a 1:1 ratio of tumor cells:RAW264.7/BMDC/JAWS II. Supernatants were collected for ELISA analysis. RAW264.7/tumor cell co-cultures were collected using a cell scraper and samples were stained with DAPI (Sigma), anti-CD45 Brilliant Violet 510 (BioLegend), anti-CD86 APC-Cy7, and anti-CD206 AF488 and assessed by flow cytometry. JAWS II/tumor cell and BMDC/tumor cell co-cultures were collected with versene and stained with DAPI (Sigma), CD11b AF488 (Abcam), CD11c PE (Molecular Probes), anti-CD45 Brilliant Violet 510 or PECy5 (BioLegend), anti-CD86 APC-Cy7, MHC Class II PECy5 (Thermo Fisher), MHC Class II Brilliant Violet 421 (BioLegend), 7-AAD (BioLegend), and/or CD80 PE (Thermo Fisher) and assessed by flow cytometry. […] RNA concentration was determined on an Eppendorf biophotometer plus. […]

MiaPaca-2 cells = assay: MTS cell proliferation assay, MiaPaca-2; format: cell-based, human; settings: 72 hrs
[8] = test system: drug-resistant cancer cells; settings: Quintieri et al., 2005; cited from earlier work
[9] = test system: Adreno-cortical cancer cell lines ACC01 and ACC07; assay: MTS cell proliferation assay, ACC01 and ACC07; settings: 72 hrs, lines derived from Stage IV patients
Protocol: All cells were incubated for a further 72 hrs followed by the colorimetric MTS cell proliferation assay (Cory et al., Cancer Commun., 3(7): 207-12 (1991)) using the CellTiter 96 AQueous One Solution Cell Proliferation Assay (Promega Corp., Madison, Wis., USA), according to the manufacturer's instructions. The colorimetric measurements were read at 490 nm.

[10] = test system: human colorectal cancer cell lines Caco-2 and HCT116; assay: MTS cell proliferation assay, Caco-2 and HCT116; format: cell-based; settings: 72 hrs
JAWSII cells = assay: αGC-CD1d surface presentation on JAWSII cells (flow cytometry); format: cell-based, mouse; settings: 8h to 48h post-treatment; vs minicells alone and untreated
Protocol: Treatment of JAWSII spheroids with EDVαGC: JAWSII cells were treated with 1000 ng/ml αGC (positive control); empty minicells and minicellsαGC compared to untreated cells and collected at 8h, 16h, 24h and 48h post-treatment (FIG. 46A-46D).
Initial treatment preparation: 6 hanging drop suspension samples were used for each treatment group per time point. 5×10^4 JAWSII cells and 5×10^8 minicells ([…]) were used for each treatment sample and cultured in JAWSII cell culture media in a total volume of 50 μl. Extra untreated samples were prepared for isotype controls. The appropriate amount of minicells were pelleted by centrifugation at 12,000 g for 7 min and the supernatant was carefully removed by pipetting. Appropriate amount of live JAWS cells (based on the cell count from the previous section) were added to the pelleted minicells. The minicells were then dissociated into single-minicells-cell suspensions by gentle pipetting. The final volume of each sample was then made up by the addition of sterile culture media. […]
Staining the treated JAWSII cells with anti-alpha GalCer:mCD1d complex monoclonal antibody: The entire content of each hanging drop well was carefully collected using a P200 pipette and transferred into an Eppendorf tube. […] The samples were then analyzed using a Gallios flow cytometer.

Row | SMILES | type 1 interferon mRNA production [1] | cytotoxicity [2] | drug sensitivity [3] | IC50 ([3]; head and tail PDAC cells) | drug sensitivity ([3]; listed as 682) | inhibition of proliferation / resistance of the cells (MiaPaca-2 GemR cells) | inhibition of proliferation / resistance of the cell line [4] | CD86 expression (RAW264.7 cells) | type 1 interferon mRNA production [5] | inhibition of proliferation / resistance of the cell line [6] | CD86 expression on RAW264.7 cells [7] | production of TNF-α and IL-6 (Th1 cytokines) [7] | inhibition of proliferation / resistance of the cells (MiaPaca-2 cells) | IC50s for even drug-resistant cancer cells [8] | cytotoxic effect / resistance of the cell lines [9] | inhibition of proliferation / resistance of the cell lines [10] | anti-GalCer:mCD1d staining (αGC surface presentation) (JAWSII cells)
1 | COc1cccc2c1C(=O)c1c(O)c3c(c(O)c1C2=O)C[C@@](O)(C(=O)CO)C[C@@H]3OC1CC2C(OC3C(OC)OCCN23)C(C)O1 (stereo partly drawn) [PNU-159682, 3′-deamino-3″,4′-anhydro-[2″(S)-methoxy-3″(R)-oxy-4″-morpholinyl] doxorubicin] | unable to elicit increases | greater cytotoxicity | sensitive | pM range | extreme sensitivity | could inhibit proliferation | inhibited proliferation | did not induce the same response | unable to elicit increases | could inhibit proliferation | unable to produce any significant change | no increase | could inhibit proliferation | pM range | potent cytotoxic effects | inhibited proliferation | 
2 | CCCCCCCCCCCCCCCCCCCCCCCCCC(=O)N[C@@H](CO[C@H]1O[C@H](CO)[C@H](O)[C@H](O)[C@H]1O)[C@H](O)[C@H](O)CCCCCCCCCCCCCC [free α-GC, α-galactosylceramide] |  |  |  |  |  |  |  |  |  |  |  |  |  |  |  |  | clear shift
